Data on 32 molecules can be found in ChEMBL document CHEMBL1142875, “Synthesis and biological evaluation of 4-alkylamino-6-(2-hydroxyethyl)-2-methylthiopyrimidines as new rubella virus inhibitors” (Eur J Med Chem, 2007).

Data set [1] in a line: Selectivity index, Ratio of CC50 for Vero cells to IC50 for Rubella virus strain THERIEN. It is filed as functional.
Data set [2] can be described thus: Cytotoxicity against Vero cells after 48 hrs. The data set is classed as cell-based. The note with it: chlorocebus sabaeus.
The nature of data set [3]: Antiviral activity against Rubella virus strain THERIEN in Vero cells. It is filed as functional, cell-based.
Data set [4] can be described thus: Inhibition of Rubella virus strain THERIEN in Vero cells after 48 hrs of high multiplicity infection by plaque assay. Also noted: concentration or dose not given beside the values. It is filed as functional.

On to `CSc1nc(CCO)cc(N(C)C)n1`, for which, in data set [1], the “Ratio CC50/IC50” value amounted to 7.3. Moreover, in data set [2], the 50% cytotoxic concentration (CC50) (as a rule, the concentration that lowers cell viability or growth by half) at 48 h came out at 587 µM. In addition, the concentration for half-maximal inhibition (IC50) (usually the point on the concentration scale where inhibition reaches its midpoint) in data set [3] worked out at 80.7 µM. In data set [4], the Inhibition (in general, the percentage by which the read-out fell short of the control) turned out to be 92.8%.

For `C=CCNc1nc(SC)nc(CCO)c1Cl`, the “Ratio CC50/IC50” value in data set [1] is recorded as 11.1. This molecule displayed a CC50 at 48 h in data set [2] of 481 µM. In data set [3], this molecule came in with a concentration for half-maximal inhibition (IC50) of 43.5 µM. This molecule also returned an Inhibition in data set [4] of 83%.

As to `COc1ccccc1N1CCN(c2cc(CCO)nc(SC)n2)CC1`, the “Ratio CC50/IC50” value in data set [1] is given as 6.2. Further, half-maximal cytotoxicity in data set [2] (CC50 at 48 h) was put at 174 µM. Moreover, in data set [3], the half-inhibitory concentration (IC50) amounted to 27.8 µM. In data set [4], this molecule returned an Inhibition of 96.1%.

Turning to `CSc1nc(CCO)cc(N2CCC(C)CC2)n1`, the “Ratio CC50/IC50” value in data set [1] was found to be 4.9. The same molecule returned a CC50 at 48 h in data set [2] of 233 µM. Further, inhibition in data set [3] was half-maximal at 47.8 µM (IC50). The Inhibition in data set [4] is 96.5%.

On to `CSc1nc(CCO)cc(N2CCC2)n1`, for which the “Ratio CC50/IC50” value in data set [1] is listed as less than 2. Also, the midpoint of cytotoxicity in data set [2], the CC50 at 48 h, lay at 556 µM. The molecule also displayed a half-maximal inhibitory concentration (IC50) in data set [3] of more than 278 µM. Also, the Inhibition in data set [4] was found to be 35.6%.

In the case of `CSc1nc(CCO)cc(N2CCN(c3cccc(C(F)(F)F)c3)CC2)n1`, the “Ratio CC50/IC50” value in data set [1] worked out at 2.2. The cytotoxic concentration (CC50) at 48 h in data set [2] stood at 39.2 µM. The molecule further registered an IC50 in data set [3] of 17.6 µM. Moreover, the Inhibition in data set [4] stood at 58.9%.

For the molecule `CSc1nc(CCO)cc(N2CCN(C(C)=O)CC2)n1`, the “Ratio CC50/IC50” value in data set [1] came out at 8.6. In data set [2], half-maximal cytotoxicity (CC50 at 48 h) was put at 422 µM. This molecule showed an IC50 in data set [3] of 49 µM. The same molecule came in with an Inhibition in data set [4] of 65.6%.

`C=CCNc1nc(SC)nc(CCO)c1I`: in data set [1], the “Ratio CC50/IC50” value is 22.7. In data set [2], this molecule displayed a CC50 at 48 h of 356 µM. Besides, in data set [3], 15.7 µM corresponded to half-maximal inhibition (IC50). This molecule yielded an Inhibition in data set [4] of 93.9%.

Consider `CSc1nc(CCO)cc(N2CCN(C)CC2)n1`, for which, in data set [1], the “Ratio CC50/IC50” value is on record as less than 2. The 50% cytotoxic concentration (CC50) at 48 h in data set [2] is 466 µM. Further, the IC50 in data set [3] was more than 233 µM. The same molecule returned an Inhibition in data set [4] of 20.6%.

Take `CSc1nc(CCO)cc(N2CCN(c3ccc(F)cc3)CC2)n1`: the “Ratio CC50/IC50” value in data set [1] was 3.5. Also, the CC50 at 48 h in data set [2] stood at 180 µM. In data set [3], the IC50 was 51.7 µM. Moreover, in data set [4], the Inhibition was 93.2%.

As to `CCCN(CCC)c1cc(CCO)nc(SC)n1`, the “Ratio CC50/IC50” value in data set [1] is given as less than 2. The molecule also registered a half-maximal cytotoxic concentration (CC50) at 48 h in data set [2] of 58 µM. In data set [3], this molecule displayed an IC50 of more than 29 µM. Moreover, the Inhibition in data set [4] came out at 0%.

For `CSc1nc(CCO)cc(NCc2ccc(Cl)cc2Cl)n1`, in data set [1], the “Ratio CC50/IC50” value worked out at 3.8. In data set [2], this molecule came in with a CC50 at 48 h of 182 µM. For the same molecule, inhibition in data set [3] was half-maximal at 48 µM (IC50). For the same molecule, the Inhibition in data set [4] is on record as 76.1%.

Consider `CCCCCNc1nc(SC)nc(CCO)c1Br`, for which, in data set [1], the “Ratio CC50/IC50” value is 2.5. In data set [2], this molecule yielded a CC50 at 48 h of 93.3 µM. The molecule further had a concentration for half-maximal inhibition (IC50) in data set [3] of 37.4 µM. This molecule also gave an Inhibition in data set [4] of 60%.

Regarding `COc1ccc(Nc2cc(CCO)nc(SC)n2)cc1`, the “Ratio CC50/IC50” value in data set [1] is recorded as less than 2. It took 430 µM to reach half-maximal cytotoxicity in data set [2] (CC50 at 48 h). Further, in data set [3], the IC50 was more than 215 µM. Besides, in data set [4], the Inhibition was 43.3%.

As for `CSc1nc(CCO)cc(N2CCSC2)n1`, the “Ratio CC50/IC50” value in data set [1] worked out at 21.6. In data set [2], this molecule yielded a 50% cytotoxic concentration (CC50) at 48 h of 486 µM. This molecule also gave an IC50 in data set [3] of 22.6 µM. In data set [4], the Inhibition was determined as 95.3%.

For `C#CCNc1nc(SC)nc(CCO)c1Cl`, in data set [1], the “Ratio CC50/IC50” value is given as 3.6. Besides, the CC50 at 48 h in data set [2] was determined as 485 µM. Also, the half-inhibitory concentration (IC50) in data set [3] amounted to 136 µM. The molecule also returned an Inhibition in data set [4] of 85.4%.

As to `C#CCNc1cc(CCO)nc(SC)n1`, the “Ratio CC50/IC50” value in data set [1] turned out to be 10.4. The molecule also returned a CC50 at 48 h in data set [2] of 1120 µM. In data set [3], the IC50 stood at 108 µM. The same molecule registered an Inhibition in data set [4] of 98.8%.

With `CCCN(C)c1cc(CCO)nc(SC)n1`, in data set [1], the “Ratio CC50/IC50” value turned out to be 20.5. For the same molecule, the CC50 at 48 h in data set [2] was 519 µM. It took 25.3 µM to reach half-maximal inhibition in data set [3] (IC50). Besides, the Inhibition in data set [4] is 94.2%.

Turning to `CSc1nc(CCO)cc(N2CCCC2)n1`, the “Ratio CC50/IC50” value in data set [1] amounted to 10.9. The same molecule showed a CC50 at 48 h in data set [2] of 523 µM. This molecule also returned an IC50 in data set [3] of 48.1 µM. In data set [4], this molecule yielded an Inhibition of 72.6%.

As to `CSc1nc(CCO)cc(N(C)Cc2ccccc2)n1`, in data set [1], the “Ratio CC50/IC50” value is reported as less than 2. In data set [2], this molecule displayed a cytotoxic concentration (CC50) at 48 h of 108 µM. Also, the IC50 in data set [3] is more than 54 µM. Also, the Inhibition in data set [4] is recorded as 31.9%.

As for `CCCCCNc1nc(SC)nc(CCO)c1Cl`, the “Ratio CC50/IC50” value in data set [1] was 6.6. In addition, in data set [2], the cytotoxic concentration (CC50) at 48 h was 108 µM. The molecule also had an IC50 in data set [3] of 16.2 µM. For the same molecule, the Inhibition in data set [4] was 66.4%.

Regarding `CSc1nc(CCO)cc(N2CCSCC2)n1`, the “Ratio CC50/IC50” value in data set [1] is on record as less than 2. Further, in data set [2], the 50% cytotoxic concentration (CC50) at 48 h worked out at 461 µM. Also, the half-maximal inhibitory concentration (IC50) in data set [3] was more than 231 µM. In data set [4], this molecule registered an Inhibition of 45.2%.

For `CSc1nc(CCO)cc(N(CCO)CCO)n1`, the “Ratio CC50/IC50” value in data set [1] is reported as 10.7. For the same molecule, half-maximal cytotoxicity in data set [2] (CC50 at 48 h) was put at 1820 µM. Further, the IC50 in data set [3] amounted to 170 µM. In data set [4], the Inhibition is listed as 95.7%.

As to `C=CCNc1nc(SC)nc(CCO)c1Br`, the “Ratio CC50/IC50” value in data set [1] worked out at 8.1. For the same molecule, the CC50 at 48 h in data set [2] was 411 µM. The molecule also gave a half-inhibitory concentration (IC50) in data set [3] of 50.9 µM. In data set [4], this molecule had an Inhibition of 86.9%.

In the case of `C=CCN(CC=C)c1cc(CCO)nc(SC)n1`, the “Ratio CC50/IC50” value in data set [1] was determined as 2.2. Moreover, it took 249 µM to reach half-maximal cytotoxicity in data set [2] (CC50 at 48 h). Further, the half-inhibitory concentration (IC50) in data set [3] was 112 µM. In data set [4], the Inhibition came to 54.7%.

On to `CCCCCNc1cc(CCO)nc(SC)n1`, for which the “Ratio CC50/IC50” value in data set [1] amounted to 11.4. Moreover, the half-maximal cytotoxic concentration (CC50) at 48 h in data set [2] was determined as 245 µM. In addition, in data set [3], the half-maximal inhibitory concentration (IC50) worked out at 21.6 µM. The molecule also showed an Inhibition in data set [4] of 94.7%.

As for `CCCCCNc1nc(SC)nc(CCO)c1I`, the “Ratio CC50/IC50” value in data set [1] worked out at 3. The CC50 at 48 h in data set [2] stood at 81.8 µM. In data set [3], this molecule displayed an IC50 of 27.5 µM. The molecule also registered an Inhibition in data set [4] of 95.1%.

Consider `C#CCN(C)c1cc(CCO)nc(SC)n1`, for which the “Ratio CC50/IC50” value in data set [1] is 9.3. This molecule showed a 50% cytotoxic concentration (CC50) at 48 h in data set [2] of 1050 µM. Further, the midpoint of inhibition in data set [3], the IC50, lay at 114 µM. In addition, in data set [4], the Inhibition was determined as 92.1%.

As for `C#CCNc1nc(SC)nc(CCO)c1I`, the “Ratio CC50/IC50” value in data set [1] stood at 21. In addition, in data set [2], the half-maximal cytotoxic concentration (CC50) at 48 h is 716 µM. The molecule further showed a half-maximal inhibitory concentration (IC50) in data set [3] of 34.1 µM. In addition, the Inhibition in data set [4] is given as 97.3%.

In the case of `C#CCNc1nc(SC)nc(CCO)c1Br`, the “Ratio CC50/IC50” value in data set [1] turned out to be 5.6. In data set [2], this molecule gave a 50% cytotoxic concentration (CC50) at 48 h of 827 µM. Further, the midpoint of inhibition in data set [3], the IC50, lay at 149 µM. This molecule also showed an Inhibition in data set [4] of 94.4%.

Regarding `CSc1nc(CCO)cc(N2CCN(c3ccccc3)CC2)n1`, the “Ratio CC50/IC50” value in data set [1] is recorded as 3.3. Further, it took 189 µM to reach half-maximal cytotoxicity in data set [2] (CC50 at 48 h). The molecule further came in with an IC50 in data set [3] of 57 µM. In data set [4], this molecule displayed an Inhibition of 90%.

For the molecule `CCCCN(CCCC)c1cc(CCO)nc(SC)n1`, in data set [1], the “Ratio CC50/IC50” value is reported as 3.9. Further, in data set [2], the midpoint of cytotoxicity, the CC50 at 48 h, lay at 52.5 µM. In data set [3], this molecule displayed a half-inhibitory concentration (IC50) of 13.5 µM. In addition, the Inhibition in data set [4] is 87%.
